Measured values reported in PMC7179685, “Iminosugars With Endoplasmic Reticulum α-Glucosidase Inhibitor Activity Inhibit ZIKV Replication and Reverse Cytopathogenicity in vitro” (Frontiers in Microbiology, 2020).
Where a name gives a salt, the structure may show the parent alone.

How the values were obtained:
ZIKV strain PRVABC59 [1] = assay: Antiviral screening assay (MTS cell viability after infection) in CHME3 cells; format: cell-based, Zika virus; conditions: for ZIKV-induced cell death (MTS): PRVABC59, MOI 1, 72 hpi; for viability at 0.01 µM: Zika virus, read-out: cell viability following ZIKV infection
Description: (§1) A cell viability assay was used to evaluate both the cytotoxicity and antiviral abilities of the iminosugars with appropriate controls as previously described ([Fletcher et al., 2000]) using the CellTiter 96® AQueous One Solution Cell Proliferation Assay (MTS, Promega, Madison, WI, United States) following the manufacturer’s instructions. At 60–70% confluence, Vero cells and CHME3 cells were pretreated with iminosugars for 2 h and then infected with ZIKV according to the plate layout shown in Supplementary Figure S1. Four biological replicates were used to assess cytotoxicity, and six replicates were used to assess the antiviral ability of each iminosugar with concentrations ranging from 0.01 to 1000 μM or vehicle (sterile nuclease-free water). Cells treated with iminosugars or vehicle control were infected with ZIKV strain PRVABC59, IBH30656 or MEX 2-81 at a multiplicity of infection (MOI) of 1 in infection medium consisting of DMEM supplemented with 5% FBS and 1% antibiotic/antimycotic solution. The CHME3 infection medium was additionally supplemented with 0.1% non-essential amino acids (NEAA). At 72 h post-infection (hpi), MTS solution was added to the wells, and after 2 h, the optical density was measured at 490 nm using a microplate reader (ELx800; BioTek, Winooski, VT, United States). Previous studies have shown that ER α-glucosidase inhibitor, Celgosivir prevents DENV secretion in primary human macrophages with an EC50 of 5 μM and has CC50 greater than 1000 μM in MBDK cells ([Whitby et al., 2004]; [Sung et al., 2016]).

CHME3 cells [2] = assay: Cytotoxicity, MTS cell viability assay in CHME3 cells; format: cell-based, Human; conditions: 72 h post treatment; for metabolic activity (cytotoxicity, MTS): 1000 μM; for metabolic activity compared to vehicle control (cytotoxicity, MTS): 0.01 to 100 μM
Description: as §1

ZIKV PRVABC59 [3] = assay: Virus yield reduction assay (qRT-PCR and TCID50) in Vero cells; format: cell-based, Zika virus; conditions: 1 μM, 48 hpi; for PRVABC59 ZIKV RNA in supernatant compared with vehicle control (qRT-PCR): MOI 0.5 and MOI 5, p ≤ 0.0318; for infectious PRVABC59 ZIKV titers (TCID50): MOI 0.5 and MOI 5, p ≤ 0.0433
Description: (§2) Zika virus yield reduction following treatment with iminosugars was assessed by measuring the NS1 gene by a previously described quantitative reverse transcription-polymerase chain reaction (qRT-PCR) and infectious virus titration in Vero cells ([Reed and Muench, 1938]; [Goebel et al., 2016]). Vero and CHME3 cells pre-treated 1 μM of castanospermine, celgosivir or DNJ for 2 h and then were infected with PRVABC59 either at MOI 0.5 or 5 in infection medium. After 2 h of incubation with the virus, medium from cells was removed, cells were washed with phosphate buffered saline, and fresh infection medium containing 1 μM of castanospermine, celgosivir or DNJ was added to the wells. At 48 and 72 hpi, culture supernatants were harvested and stored at −80°C until use for viral RNA extraction. Viral RNA was extracted from 50 μl of sample using the MagMAX-96 Viral RNA Isolation Kit (Applied Biosystems, Foster City, CA, United States) on a MagMAX Express-96 Deep Well Magnetic Particle Processor (Applied Biosystems). The amount of ZIKV genomic RNA was measured by qRT-PCR using SuperScript® III Platinum One-Step qRT-PCR Kit on a 7500 Fast Real-Time PCR System (Applied Biosystems). The primers (F: 5′-[…]-3′, R: 5′-[…]-3′) and probe sequence (5′- FAM-TGCCCAACA/ZEN/CAAGGTGAAGCC TACCT-BHQ) were purchased from Integrated DNA Technologies (IDT; Coralville, IA, United States), and the qRT-PCR cycling conditions included an initial cDNA synthesis for 30 min at 50°C, followed by 2 min at 95°C and 45 cycles of 2-step cycling at 95°C for 15 s, then 55°C for 30 s ([Goebel et al., 2016]). The ZIKV copy numbers were quantified using a standard curve generated with serial dilutions of positive control ZIKV RNA standards derived from ZIKV with known TCID50 value. Cell culture supernatants were titrated for the infectious virus in Vero cells, and titer was expressed as TCID50 calculated using the Reed-Muench method ([Reed and Muench, 1938]).

Vero cells = assay: Cytotoxicity, MTS cell viability assay in Vero cells; format: cell-based, African green monkey; conditions: 72 h post treatment; for metabolic activity (cytotoxicity, MTS): 1000 μM; for metabolic activity compared to vehicle control (cytotoxicity, MTS): 0.01 to 100 μM
Description: as §1

ZIKV strain PRVABC59 [4] = assay: Antiviral screening assay (MTS cell viability after infection) in Vero cells; format: cell-based, Zika virus; conditions: for ZIKV-induced cell death (MTS): Vero cells, PRVABC59, MOI 1, 72 hpi; for viability at 0.01 µM: Zika virus, Vero, read-out: cell viability following ZIKV infection
Description: as §1

ZIKV PRVABC59 [5] = assay: Virus yield reduction assay (qRT-PCR and TCID50) in CHME3 cells; format: cell-based, Zika virus; conditions: 1 μM, 48 hpi
Description: as §2

ZIKV = tested on: ZIKV; parameters: method as in Ma et al., 2018; conditions: ref Ma et al., 2018, cited from earlier work
CHME3 cells [6] = assay: Measurement of necrosis, LDH assay in ZIKV-infected CHME3 cells; format: cell-based, Human; conditions: PRVABC59, MOI 1, 72 hpi
Description: Cell necrosis was evaluated by measuring the levels of lactate dehydrogenase (LDH) in cells using the CytoTox 96 Non-Radioactive Cytotoxicity Assay (Promega) following the manufacturer’s instructions. LDH is a soluble stable cytosolic enzyme present in many cell types which is rapidly released into the cell culture medium following disruption of the plasma membrane. LDH is a widely used marker to measure cellular cytotoxicity and necrosis. CHME3 cells in 96-well cell culture plates were pre-treated with celgosivir for 2 h and then infected with PRVABC59 at MOI 1 in the presence of celgosivir at concentrations ranging from 0.01 to 1000 μM or vehicle. Controls for media color, cells, and virus were included. At 48 and 72 hpi, 50 μl of supernatant from each well was transferred into a new 96-well plate, and 50 μl of CytoTox 96® Reagent was added to each well. After incubating at room temperature in the dark, 50 μl of Stop Solution was added to each well, and the optical density was measured at 490 nm using an ELx800 microplate reader (BioTek).

[7] = tested on: MDA5, RIG-I, MX1, IRF7, IFNβ, ISG15; assay: Antiviral gene expression by qRT-PCR in CHME3 cells; format: cell-based, Human; conditions: 1 μM
Description: CHME3 cells grown in 6-well plates and at 70% confluency were infected with PRVABC59 at MOI 1. After pre-incubation with the virus for 2 h, medium from cells was removed, cells were washed with PBS, and fresh infection medium containing 1 μM celgosivir was added. Negative control wells were added with infection medium without celgosivir. Three wells were used for each treatment. At 24, 48, and 72 h, total RNA was extracted from cells using the RNeasy Plus Minikit (Qiagen, Hilden, Germany) according to the manufacturer’s protocol. Complementary DNA was synthesized from 1 μg of total RNA using 4 μl of qScript cDNA SuperMix (5x) (QuantaBio, Beverly, MA, United States). qRT-PCR was performed on a 7500 Fast Real-Time PCR System (Applied Biosystems) using PowerSybr Green PCR MasterMix (Applied Biosystems) according to the manufacturer’s instructions. Expression of retinoic acid-inducible gene 1 (RIGI), melanoma differentiation-associated protein 5 (MDA5), interferon regulatory factor 7 (IRF7), interferon β (IFNβ), interferon-induced GTP-binding protein (MX1) and interferon-stimulated gene 15 (ISG15) were quantified, and hypoxanthine phosphoribosyltransferase 1 (HPRT1) was used as a house-keeping gene for data normalization. All primers used were previously published and were supplied by IDT ([Megiorni et al., 2005]; [Kim et al., 2008]; [Nasirudeen et al., 2011]; [Muramatsu et al., 2014]; [Seng et al., 2014]; [Liu et al., 2015]; [Livingstone et al., 2015]).

DENV = tested on: DENV; parameters: method as in Whitby et al., 2004; Sung et al., 2016; conditions: primary human macrophages; ref Whitby et al., 2004; Sung et al., 2016; read-out: EC50, prevention of DENV secretion; cited from earlier work
MBDK cells = tested on: MBDK cells; parameters: method as in Whitby et al., 2004; Sung et al., 2016; conditions: ref Whitby et al., 2004, Sung et al., 2016; cited from earlier work
[8] = tested on: activated caspases 3 and 7; assay: Measurement of apoptosis, Caspase-Glo 3/7 assay in ZIKV-infected CHME3 cells; format: cell-based, Human; conditions: PRVABC59, MOI 1, 0.01 to 1000 μM, 48 and 72 hpi
Description: Apoptotic cell death was evaluated by measuring the levels of active caspase 3 and 7 in cells using the Caspase-Glo® 3/7 Assay (Promega) following the manufacturer’s instructions. CHME3 cells in 96-well white-walled cell culture plates (Greiner Bio-One, Kremsmünster, Austria) were pre-treated with celgosivir for 2 h and then infected with PRVABC59 at MOI 1 in the presence of celgosivir at concentrations ranging from 0.01 to 1000 μM or vehicle. Controls for media color, cells, and virus were included. At 48 and 72 hpi, Caspase-Glo® Reagent was added, and after 30 min the luminescence of each sample was read five times using a Spark multimode microplate reader (TECAN, Männedorf, Switzerland) at an interval of 2 min for 15 s. The average of the five readings was used as the measurement for each biological replicate.

dengue virus (DENV) = tested on: dengue virus (DENV); parameters: method as in Rathore et al., 2011; conditions: BHK-21 cells; MOI 0.3; ref Rathore et al., 2011; cited from earlier work

Row | Structure (SMILES) | ZIKV-induced cell death (MTS) (ZIKV strain PRVABC59 [1]; CHME3 cells) | viability at 0.01 µM (ZIKV strain PRVABC59 [1]) [%] | metabolic activity (cytotoxicity, MTS) (CHME3 cells [2]) | metabolic activity compared to vehicle control (cytotoxicity, MTS) (CHME3 cells [2]) | PRVABC59 ZIKV RNA in supernatant compared with vehicle control (qRT-PCR) (ZIKV PRVABC59 [3]) | infectious PRVABC59 ZIKV titers (TCID50) (ZIKV PRVABC59 [3]) | metabolic activity (cytotoxicity, MTS) (Vero cells) | metabolic activity compared to vehicle control (cytotoxicity, MTS) (Vero cells) | ZIKV-induced cell death (MTS) (ZIKV strain PRVABC59 [4]) | viability at 0.01 µM (ZIKV strain PRVABC59 [4]) [%] | infectious PRVABC59 ZIKV titers (TCID50) (ZIKV PRVABC59 [5]; MOI 0.5) | infectious PRVABC59 ZIKV titers (TCID50) (ZIKV PRVABC59 [5]; MOI 5, p ≤ 0.0433) | also measured
1 | OC[C@H]1NC[C@H](O)[C@@H](O)[C@@H]1O [DNJ, 1-deoxynojirimycin hydrochloride] | reduce ZIKV-induced cell death | > 90 | decrease in metabolic activity | No reduction in metabolic activity | Significant reductions | statistically significant reduction | decrease in metabolic activity | No reduction in metabolic activity | reduce ZIKV-induced cell death | > 90 | statistically significant reduction | statistically significant reduction | –
2 | O[C@H]1[C@H](O)[C@@H](O)CN2CC[C@H](O)[C@H]12 [castanospermine] | reduce ZIKV-induced cell death | – | decrease in metabolic activity | No reduction in metabolic activity | Significant reductions | statistically significant reduction | decrease in metabolic activity | No reduction in metabolic activity | reduce ZIKV-induced cell death | – | not statistically significant | statistically significant reduction | cell viability following ZIKV infection (ZIKV strain PRVABC59 [1]; CHME3 cells, MOI 1, 10 μM required): 90%; PRVABC59 ZIKV RNA in supernatant, reduction vs control cells (qRT-PCR) (ZIKV PRVABC59 [5]; MOI 5): not significant
3 | CC(C)(C)NC(=O)N(CCCCCCN1C[C@H](O)[C@@H](O)[C@H](O)[C@H]1CO)C1CCCCC1 [IHVR-19029] | – | – | – | – | – | – | – | – | – | – | – | – | ZIKV RNA production (ZIKV; HEK293 embryonic kidney cells, MOI 0.1, 0.1 μM, the lowest concentration tested): decreased ZIKV RNA production; ZIKV viral replication (ZIKV; embryonic kidney cells): reduced
4 | CCCC(=O)O[C@H]1CN2CC[C@H](O)[C@@H]2[C@@H](O)[C@@H]1O [celgosivir, 6-O-butanoyl castanospermine] | reduce ZIKV-induced cell death | > 90 | decrease in metabolic activity | No reduction in metabolic activity | Significant reductions | statistically significant reduction | decrease in metabolic activity | No reduction in metabolic activity | reduce ZIKV-induced cell death | > 90 | statistically significant reduction | statistically significant reduction | ZIKV-induced LDH activity (necrosis) (CHME3 cells [6]): reduced PRVABC59 ZIKV-induced LDH activity to levels equivalent to mock-infected cells; decrease of IFNβ expression levels ([7]; PRVABC59 ZIKV-infected CHME3 cells, treated vs not treated, 48 hpi, p = 0.033): 27%; expression levels of MDA5, RIG-I, MX1, IRF7, and ISG15, treated vs vehicle-treated ([7]; PRVABC59 ZIKV-infected CHME3 cells, any timepoint (24, 48, 72 h)): not significantly different; decrease of IFNβ gene expression ([7]; mock-infected CHME3 cells, treated vs untreated, 48 hpi, statistically significant): 22%; level of IFNβ expression, treated vs untreated ([7]; mock-infected CHME3 cells, 72 hpi): similar; EC50 (DENV): 5 µM; CC50 (MBDK cells): > 1000 µM; levels of activated caspases 3 and 7 in comparison to untreated infected cells [8]: did not significantly reduce; effectiveness against DENV relative to castanospermine (dengue virus (DENV)): 100 times
